Paper PMC11789008 (Proceedings of the National Academy of Sciences of the …, 2025)
No end group written: not given here.

Key:
SARS-CoV-2 spike RBD, WT = SARS-CoV-2 spike RBD, WT (Severe acute respiratory syndrome coronavirus 2, UniProt P0DTC2); assay: biochemical
[1] = powder and solution form
[2] = target: SARS-CoV-2 spike ectodomain trimer with the BA.2-type RBD (SARS-CoV-2) (UniProt P0DTC2); assay: cryo-EM structure
[3] = target: SARS-CoV-2 spike ectodomain trimer with the BA.5-type RBD (SARS-CoV-2) (UniProt P0DTC2); assay: cryo-EM structure

DKLWILQKIYEIMVRLDEEGHGEASLMVSDLIYEFMKRD [CeSPIACE]
Kd (SARS-CoV-2 spike RBD, WT): 246 ± 2 pM | stability [1]: stability has been confirmed in powder and solution form

SARS-CoV-2 spike ectodomain trimer with the BA.2-type RBD (from UniProt P0DTC2 13-1208) (domain or fragment)
stoichiometry N [2]: 3

SARS-CoV-2 spike ectodomain trimer with the BA.5-type RBD (from UniProt P0DTC2 13-1208) (domain or fragment)
stoichiometry N [3]: 3
